# Entries after “also recorded” stand apart in the source; their conditions may differ.
# Assays:
# [1] = test system: cIAP1, procaspase-8 and PARP in MDA-MB-231 xenograft tissues; assay: In vivo pharmacodynamics in MDA-MB-231 xenograft tissues; parameters: species or system SCID mice
# [2] = test system: MDA-MB-231 xenograft tumors; assay: In vivo antitumor efficacy, MDA-MB-231 xenograft model
# [3] = test system: more than 100 human cancer cell lines; assay: Screening against more than 100 human cancer cell lines; type: cell-based
# Pharmacokinetics in dogs = type: in vivo; conditions: beagle, dog, po, 10 mg/kg
# XIAP BIR3 protein [4] = molecular target: T1, XIAP BIR3 protein (Homo sapiens, UniProt P98170); assay: Competitive fluorescence-polarization binding assay, XIAP BIR3; conditions: XIAP BIR3, cIAP1 BIR3 and cIAP2 BIR3
# T1 sequence (P98170 241-356): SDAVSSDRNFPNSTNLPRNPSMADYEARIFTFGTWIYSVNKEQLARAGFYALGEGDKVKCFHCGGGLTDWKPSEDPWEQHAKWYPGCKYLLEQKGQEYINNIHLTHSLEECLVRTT
# [5] = Pharmacokinetics in plasma of SCID mice bearing MDA-MB-231 tumors; conditions: mouse, in vivo
# MDA-MB-231 cancer cells = assay: Trypan blue cell death assay, MDA-MB-231; type: cell-based, human; conditions: 1 μM for 24 hours
# [6] = Pharmacokinetics in MDA-MB-231 tumor tissues of SCID mice; type: in vivo; conditions: for Cmax: SCID, mouse, in vivo
# XIAP BIR3 protein [7] = molecular target: T1, XIAP BIR3 protein; assay: Cell-free functional assay against XIAP BIR3; type: biochemical; conditions: 1 μM compound, 500 nM XIAP BIR3, MDA-MB-231 cell lysates
# Metabolic stability = type: in vitro ADME; conditions: IND-enabling studies, data not shown
# [8] = Pharmacokinetics in non-human primates; type: in vivo, cynomolgus monkeys; conditions: cynomolgus monkey, plasma, po, 5 mg/kg
# [9] = test system: normal-like human breast epithelial MCF-12F cells; assay: Trypan blue cell death assay, MCF-12F; type: cell-based; conditions: concentrations as high as 10 μM, 48 hours
# [10] = test system: caspase-3 and PARP in MDA-MB-231 cancer cells; assay: Western blot of caspase-3 activation and PARP cleavage, MDA-MB-231; type: cell-based, human; conditions: 1.5 μM, in as little as 12 hr
# [11] = Toxicity evaluation in mice; type: in vivo; conditions: 200 mg/kg, daily for 5 days a week for 2–3 weeks via oral gavage
# Tolerability in dogs = type: in vivo; conditions: IND-enabling studies, data not shown
# [12] = test system: Primary human normal prostate epithelial cells; assay: Trypan blue cell death assay, primary prostate epithelial cells; type: cell-based; conditions: concentrations as high as 10 μM, 48 hours
# cIAP1 = cIAP1 (Homo sapiens, UniProt Q13490); assay: cIAP1 degradation in MDA-MB-231 cells; type: cell-based
# Sequence of cIAP1 (Q13490 whole entry): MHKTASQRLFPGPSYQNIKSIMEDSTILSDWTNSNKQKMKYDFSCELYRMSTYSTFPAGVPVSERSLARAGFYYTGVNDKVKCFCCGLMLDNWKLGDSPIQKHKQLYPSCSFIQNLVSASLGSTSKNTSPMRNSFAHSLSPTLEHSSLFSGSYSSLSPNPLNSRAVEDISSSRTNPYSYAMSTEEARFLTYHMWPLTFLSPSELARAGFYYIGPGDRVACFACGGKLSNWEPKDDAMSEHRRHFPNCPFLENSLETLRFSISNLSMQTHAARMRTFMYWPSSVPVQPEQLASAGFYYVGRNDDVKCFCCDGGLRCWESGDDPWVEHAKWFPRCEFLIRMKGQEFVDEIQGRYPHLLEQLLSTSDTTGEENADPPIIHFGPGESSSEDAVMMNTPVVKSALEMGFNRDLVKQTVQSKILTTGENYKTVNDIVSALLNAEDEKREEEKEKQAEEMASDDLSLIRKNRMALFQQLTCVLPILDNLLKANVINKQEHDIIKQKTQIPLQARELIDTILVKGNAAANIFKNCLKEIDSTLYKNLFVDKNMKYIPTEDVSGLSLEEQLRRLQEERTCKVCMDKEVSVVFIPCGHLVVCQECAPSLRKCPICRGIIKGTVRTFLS
# [13] = 7.5 mg/kg intravenously, 24-h time-point
smiles,measurement,setting,value
"CC(=O)O[C@@]12CO[C@@H]1C[C@H](O)[C@@]1(C)C(=O)[C@H](O)C3=C(C)[C@@H](OC(=O)[C@H](O)[C@@H](NC(=O)OC(C)(C)C)c4ccccc4)C[C@@](O)([C@@H](OC(=O)c4ccccc4)[C@H]21)C3(C)C.O.O.O [TXT, reference compound]",PARP cleavage in tumor tissues,[1]; [13],minimal effect
same,cIAP1 degradation in tumor tissues,[1]; [13],minimal effect
same,processing of procaspase-8 in tumor tissues,[1]; [13],induces the processing of procaspase-8
same,antitumor activity,"[2]; 7.5 mg/kg intravenously, once a week for 2 weeks",strong antitumor activity
"CN[C@@H](C)C(=O)N[C@H]1CN(C(=O)CC(C)C)CC[C@H]2CC[C@@H](C(=O)NC(c3ccccc3)c3ccccc3)N2C1=O [compound 2, (5S,8S,10aR)-N-benzhydryl-5-((S)-2-(methylamino)propanamido)-3-(3-methylbutanoyl)-6-oxodeca-hydropyrrolo[1,2-a][1,5]diazocine-8-carboxamide]",share of cell lines in which cell growth is effectively inhibited,[3],approximately 15%
same,AUC,Pharmacokinetics in dogs; in vivo,198 µg·h/mL
same,Cmax,Pharmacokinetics in dogs; plasma,17 µM
same,processing of procaspase-8 in tumor tissues,"[1]; single oral dose 100 mg/kg, 2-hr and 6-hr time-points",effectively induces processing of procaspase-8
same,PARP cleavage in tumor tissues,"[1]; single oral dose 100 mg/kg, at 2 hr, maximum at 6 hr, still evident after 16 hr","cleavage of the apoptosis marker, PARP"
same,cIAP1 degradation in tumor tissues,"[1]; single oral dose 100 mg/kg, at the 2-hr time-point, persists for 16 hr",effectively induced cIAP1 degradation
same,times higher affinities than the Smac AVPI peptide,XIAP BIR3 protein [4],50–100 times
same,Cmax,"[5]; iv, 10 mg/kg",5 µM
same,Cmax,"[5]; po, 10 mg/kg",1.5 µM
same,Cmax,"[5]; po, 30 mg/kg",2 µM
same,Cmax,"[5]; po, 100 mg/kg",9.9 µM
same,cells that underwent cell death,MDA-MB-231 cancer cells,More than 50%
same,tumor tissue penetration,[6]; SCID mice bearing MDA-MB-231 tumors,excellent tumor tissue penetration
same,Cmax,"[6]; iv, 10 mg/kg",6 µM
same,Cmax,"[6]; po, 10 mg/kg",0.5 µM
same,Cmax,"[6]; po, 30 mg/kg",3.9 µM
same,Cmax,"[6]; po, 100 mg/kg",18.2 µM
same,antagonism of XIAP BIR3 and restoration of caspase-9 activity,XIAP BIR3 protein [7],completely antagonizes XIAP and restores the activity of caspase-9
same,metabolic stability,Metabolic stability,good metabolic stability
same,Cmax,[8],~4 µM
same,toxicity (cell death) against normal-like cells,[9],minimal toxicity
same,activation of caspase-3 and cleavage of PARP,[10],robust activation of caspase-3 and cleavage of PARP
same,tolerability,[11],well tolerated
same,tolerability in dogs,Tolerability in dogs,well tolerated
same,antitumor activity,"[2]; 10 mg/kg oral gavage daily, 5 days a week for 2 weeks",no significant antitumor activity
same,toxicity to animals,"[2]; oral dosing, MDA-MB-231 xenograft model in mice",minimal toxicity; also recorded: no signs of toxicity
same,toxicity (cell death) against normal cells,[12],minimal toxicity
same,cIAP1 degradation,cIAP1; 100 nM for 15 min,complete degradation
same,induction of cIAP1 degradation,cIAP1; at concentrations as low as 10 nM,effectively induces cIAP1 degradation

# — publication PMC3520070 (Journal of medicinal chemistry, 2011)
